# Measured values reported in patent US10399972B2, “Tricyclic compounds as inhibitors of mutant IDH enzymes” (Merck Sharp & Dohme Corp., priority 2015, dated 2019).
# pIC50: −log10 of the molar value.
# Target: R132H mutant IDH1 enzyme (Homo sapiens (Human), UniProt O75874, R132H)
# Test: R132H IDH1 Enzymatic Assay
# Type: biochemical
# Details: 1.5 nM final, 30 min preincubation, 60 min reaction, Kinase-GLO luminescence
# Experimental: R132H IDH1 Enzymatic Assay
# Each test compound (10 mM stock in DMSO) is diluted in DMSO to make a 10-point, 3-fold dilution series. 125 nL of each dilution or DMSO alone is dispensed to a 384-well Greiner Lumitrac 200 assay plate using an Echo® Liquid Handler. To each well of the plate is added 20 uL of enzyme in assay buffer or assay buffer alone. Assay buffer consists of 50 mM sodium phosphate, pH 7.0, 50 mM magnesium chloride, 50 mM sodium chloride, and 0.01% (w/v) bovine serum albumin. When present, the R132H mutant IDH1 enzyme is at a working concentration of 1.875 nM (final concentration in assay of 1.5 nM). The assay plate is allowed to incubate for 30 minutes at room temperature and 5 uL of 5× substrate mixture (2.5 uM nicotinamide adenine dinucleotide phosphate, 100 uM adenosine diphosphate, 7.5 mM glyceraldehyde-3-phosphate, 7.5 ug/mL of spinach glyceraldehyde-3-phosphate dehydrogenase, 25 nM phosphoglycerate kinase, and 5 mM alpha-ketoglutarate in assay buffer) is added to all wells. The reaction plate is incubated for 60 minutes followed by addition of 25 uL of Promega Kinase-GLO reagent to all wells and 10-minute incubation.
# Luminescence is measured using a PerkinElmer Envision plate reader. The percent activity of each dilution is determined as the ratio of background corrected signal to the background corrected signal of wells receiving only DMSO. IC50 values are determined by fitting percent activity data to a four-parameter logistic dose response equation. The IC50 values of the exemplified compounds are included in Table 8.
# Sequence of R132H mutant IDH1 enzyme (O75874 whole entry R132H): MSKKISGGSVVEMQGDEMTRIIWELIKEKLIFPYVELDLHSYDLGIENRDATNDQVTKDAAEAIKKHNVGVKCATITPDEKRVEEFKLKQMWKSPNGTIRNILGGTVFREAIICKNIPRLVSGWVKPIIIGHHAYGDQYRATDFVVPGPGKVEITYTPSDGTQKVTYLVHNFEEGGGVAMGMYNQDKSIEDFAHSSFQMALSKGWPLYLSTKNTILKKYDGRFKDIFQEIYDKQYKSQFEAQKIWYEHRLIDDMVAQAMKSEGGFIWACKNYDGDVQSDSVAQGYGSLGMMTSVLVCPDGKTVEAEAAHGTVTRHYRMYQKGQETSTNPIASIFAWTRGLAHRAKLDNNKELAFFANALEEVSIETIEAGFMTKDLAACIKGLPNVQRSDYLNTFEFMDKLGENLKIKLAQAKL
row,pIC50,SMILES
1,7.55,"CC(C)O[C@H]1CC[C@H](C(=O)N2Cc3cc(F)cnc3Nc3ccc(N4[C@@H]5CO[C@H]6[C@@H]5OC[C@H]64)cc32)CC1 [Example 17, (3-fluoro-8-((3R,3aR,6R,6aR)-hexahydro-3,6-epiminofuro[3,2-b]furan-7-yl)-5,11-dihydro-6H-benzo[b]pyrido[2,3-e][1,4]diazepin-6-yl)(trans-4-isopropoxycyclohexyl)methanone]"
2,7.74,"Cc1cc2c(cc1N1C[C@@H]3CC[C@H]1CO3)N(C(=O)[C@H]1CC[C@H](OC(C)C)CC1)Cc1cccnc1N2 [Example 58, (trans-4-isopropoxycyclohexyl){9-methyl-8-[(1S,4S)-2-oxa-5-azabicyclo[2.2.2]oct-5-yl]-5,11-dihydro-6H-pyrido[2,3-b][1,5]benzodiazepin-6-yl}methanone]"
3,7.52,"CC(C)O[C@H]1CC[C@H](C(=O)N2Cc3cc(Cl)cnc3Nc3ccc(N4C[C@@H]5CC[C@H]4CO5)cc32)CC1 [Example 71, (8-((1S,4S)-2-Oxa-5-azabicyclo[2.2.2]octan-5-yl)-3-chloro-5,11-dihydro-6H-benzo[b]pyrido[2,3-e][1,4]diazepin-6-yl)(trans-4-isopropoxycyclohexyl)methanone]"
4,7.59,"Cc1cc2c(cc1N1C[C@H]3CC[C@@H]1CO3)N(C(=O)[C@H]1CC[C@H](OC(C)C)CC1)Cc1cccnc1N2 [Example 60, (trans-4-isopropoxycyclohexyl){9-methyl-8-[(1R,4R)-2-oxa-5-azabicyclo[2.2.2]oct-5-yl]-5,11-dihydro-6H-pyrido[2,3-b][1,5]benzodiazepin-6-yl}methanone]"
5,7.75,"CC(C)O[C@H]1CC[C@H](C(=O)N2Cc3cc(F)cnc3Nc3cc(F)c(N4C[C@@H]5C[C@H]4CO5)cc32)OC1 [Example 46, (8-((1S,4S)-2-oxa-5-azabicyclo[2.2.1]heptan-5-yl)-3,9-difluoro-5,11-dihydro-6H-benzo[b]pyrido[2,3-e][1,4]diazepin-6-yl)((2R,5S)-5-isopropoxytetrahydro-2H-pyran-2-yl)methanone]"
6,7.74,"O=C(C1CCN(CC(F)(F)F)CC1)N1Cc2cc(F)cnc2Nc2cc(F)c(N3C[C@@H]4CC[C@H]3CO4)cc21 [Example 32, (8-((1S,4S)-2-oxa-5-azabicyclo[2.2.2]octan-5-yl)-3,9-difluoro-5,11-dihydro-6H-benzo[b]pyrido[2,3-e][1,4]diazepin-6-yl)(1-(2,2,2-trifluoroethyl)piperidin-4-yl)methanone]"
7,7.91,"O=C(C1CCN(CC(F)(F)F)CC1)N1Cc2cccnc2Nc2cc(F)c([C@H]3COCCO3)cc21 [Example 57, (S)-(8-(1,4-dioxan-2-yl)-9-fluoro-5,11-dihydro-6H-benzo[b]pyrido[2,3-e][1,4]diazepin-6-yl)(1-(2,2,2-trifluoroethyl)piperidin-4-yl)methanone]"
8,7.55,"CC(C)O[C@H]1CC[C@H](C(=O)N2Cc3cc(F)cnc3Nc3cc(F)c([C@@H]4COCCO4)cc32)OC1 (single isomer, unassigned) [Example 35]"
9,8.19,"O=C(C1CCN(CC(F)(F)F)CC1)N1Cc2cc(F)cnc2Nc2ccc([C@@H]3COCCO3)cc21 [Example 55, (R)-(8-(1,4-dioxan-2-yl)-3-fluoro-5,11-dihydro-6H-benzo[b]pyrido[2,3-e][1,4]diazepin-6-yl)(1-(2,2,2-trifluoroethyl)piperidin-4-yl)methanone]"
10,8.25,"O=C(C1CCN(CC(F)(F)F)CC1)N1Cc2cc(F)cnc2Nc2ccc([C@H]3COCCO3)cc21 [Example 54, (S)-(8-(1,4-Dioxan-2-yl)-3-fluoro-5,11-dihydro-6H-benzo[b]pyrido[2,3-e][1,4]diazepin-6-yl)(1-(2,2,2-trifluoroethyl)piperidin-4-yl)methanone]"
11,7.63,"CC(C)O[C@H]1CC[C@H](C(=O)N2Cc3cc(F)cnc3Nc3cc(F)c([C@@H]4COCCO4)cc32)OC1 (single isomer, unassigned) [Example 36]"
12,8.00,"O=C(C1CCN(CC(F)(F)F)CC1)N1Cc2cc(F)cnc2Nc2cc(F)c(N3CC4CCC3CO4)cc21 (stereo not drawn) [Example 73, (8-(2-oxa-5-azabicyclo[2.2.2]octan-5-yl)-3,9-difluoro-5H-benzo[b]pyrido[2,3-e][1,4]diazepin-6(11H)-yl)(1-(2,2,2-trifluoroethyl)piperidin-4-yl)methanone]"
13,7.62,"CC(C)O[C@H]1CC[C@H](C(=O)N2Cc3cc(F)cnc3Nc3ccc(N4CC5(CCCOC5)C4)cc32)CC1 [Example 16, [3-fluoro-8-(6-oxa-2-azaspiro[3.5]non-2-yl)-5,11-dihydro-6H-pyrido[2,3-b][1,5]benzodiazepin-6-yl][trans-4-(propan-2-yloxy)cyclohexyl]methanone]"
14,6.67,"COc1ccc2c(c1)N(C(=O)C1CCN(CC(F)(F)F)CC1)C(C)c1cccnc1N2 (stereo not drawn) [Example 67, (8-Methoxy-5-methyl-5,11-dihydro-6H-benzo[b]pyrido[2,3-e][1,4]diazepin-6-yl)(1-(2,2,2-trifluoroethyl)piperidin-4-yl)methanone]"
15,7.92,"CC(C)OC1CC[C@H](C(=O)N2Cc3cc(F)cnc3Nc3ccc(N4C[C@@H]5CC[C@H]4CO5)cc32)OC1 (stereo in doubt) [Example 49, (8-((1S,4S)-2-oxa-5-azabicyclo[2.2.2]octan-5-yl)-3-fluoro-5,11-dihydro-6H-benzo[b]pyrido[2,3-e][1,4]diazepin-6-yl)((2R,5R)-5-isopropoxytetrahydro-2H-pyran-2-yl)methanone]"
16,7.45,"CC(C)O[C@H]1CC[C@H](C(=O)N2Cc3cccnc3Nc3cc(F)c(N4CC5CCC4CO5)cc32)CC1 (stereo partly drawn) [Example 62, [9-fluoro-8-(2-oxa-5-azabicyclo[2.2.2]oct-5-yl)-5,11-dihydro-6H-pyrido[2,3-b][1,5]benzodiazepin-6-yl](trans-4-isopropoxycyclohexyl)methanone]"
17,8.24,"Cn1cc(-c2cc3c(cc2F)Nc2ncccc2CN3C(=O)C2CCN(CC(F)(F)F)CC2)cn1 [Example 52, (9-Fluoro-8-(1-methyl-1H-pyrazol-4-yl)-5,11-dihydro-6H-benzo[b]pyrido[2,3-e][1,4]diazepin-6-yl)(1-(2,2,2-trifluoroethyl)piperidin-4-yl)methanone]"
18,7.74,"O=C(C1CCN(CC(F)(F)F)CC1)N1Cc2cccnc2Nc2cc(F)c([C@@H]3COCCO3)cc21 [Example 56, (R)-(8-(1,4-Dioxan-2-yl)-9-fluoro-5,11-dihydro-6H-benzo[b]pyrido[2,3-e][1,4]diazepin-6-yl)(1-(2,2,2-trifluoroethyl)piperidin-4-yl)methanone]"
19,7.08,"O=C(C1CCN(CC(F)(F)F)CC1)N1Cc2cc(F)cnc2Nc2ccc(N3C[C@H]4COC[C@@H](C3)O4)cc21 [Example 15, (8-((1R,5S)-3,9-dioxa-7-azabicyclo[3.3.1]nonan-7-yl)-3-fluoro-5,11-dihydro-6H-benzo[b]pyrido[2,3-e][1,4]diazepin-6-yl)(1-(2,2,2-trifluoroethyl)piperidin-4-yl)methanone]"
20,7.43,"CC(C)O[C@H]1CC[C@H](C(=O)N2Cc3cccnc3Nc3cc(F)c(C4COCCO4)cc32)OC1 (stereo partly drawn) [Example 37, (8-(1,4-dioxan-2-yl)-9-fluoro-5,11-dihydro-6H-benzo[b]pyrido[2,3-e][1,4]diazepin-6-yl)((2R,5S)-5-isopropoxytetrahydro-2H-pyran-2-yl)methanone]"
21,5.24,"CC(C)O[C@H]1CC[C@H](C(=O)N2Cc3cc(S(C)(=O)=O)cnc3Nc3ccc(N4C[C@@H]5CC[C@H]4CO5)cc32)CC1 [Example 70, (8-((1S,4S)-2-oxa-5-azabicyclo[2.2.2]octan-5-yl)-3-(methylsulfonyl)-5,11-dihydro-6H-benzo[b]pyrido[2,3-e][1,4]diazepin-6-yl)(trans-4-isopropoxycyclohexyl)methanone]"
22,7.87,"CC(C)O[C@H]1CC[C@H](C(=O)N2Cc3cc(F)cnc3Nc3ccc(NCC4(CCl)CCCOC4)cc32)OC1 (stereo partly drawn) [Example 42, (8-(((3-(chloromethyl)tetrahydro-2H-pyran-3-yl)methyl)amino)-3-fluoro-5,11-dihydro-6H-benzo[b]pyrido[2,3-e][1,4]diazepin-6-yl)((2R,5S)-5-isopropoxytetrahydro-2H-pyran-2-yl)methanone]"

row,SMILES,pIC50
1,"CO[C@H]1C[C@H]2CC[C@@H](C1)N2c1ccc2c(c1)N(C(=O)C1CCN(CC(F)(F)F)CC1)Cc1cc(F)cnc1N2 [Example 10, (3-fluoro-8-((1R,3r,5S)-3-methoxy-8-azabicyclo[3.2.1]octan-8-yl)-5,11-dihydro-6H-benzo[b]pyrido[2,3-e][1,4]diazepin-6-yl)(1-(2,2,2-trifluoroethyl)piperidin-4-yl)methanone]",8.21
2,"CC(C)O[C@H]1CC[C@H](C(=O)N2Cc3cc(F)cnc3Nc3cc(F)c(N4C5CCC4COC5)cc32)CC1 [Example 26, [3,9-difluoro-8-(3-oxa-8-azabicyclo[3.2.1]oct-8-yl)-5,11-dihydro-6H-pyrido[2,3-b][1,5]benzodiazepin-6-yl][trans-4-(propan-2-yloxy)cyclohexyl]methanone]",7.86
